Experimental data published in ChEMBL document CHEMBL4507291 (2021).

Legend:
[1] = Inhibition of Atrial Natriuretic Factor (ANF) at 10 µM in the Eurofins-Panlabs radioligand binding assay (Eurofins_assay_211000); conditions: Cavia porcellus
[2] = system: Tyrosine-protein kinase ABL1 (Homo sapiens), P00519 [E255K]; assay: ABL1 E255K Kinase screen; conditions: Compound concentration 1.0 uM
[3] = system: Tyrosine-protein kinase ABL1 (Homo sapiens), P00519 [T315I]; assay: ABL1 T315I Kinase screen; conditions: Compound concentration 1.0 uM
[4] = biological target: Tyrosine-protein kinase receptor UFO (Homo sapiens) (UniProt P30530); assay: AXL Kinase screen; conditions: Compound concentration 1.0 uM
[5] = biological target: Tyrosine-protein kinase BTK (Homo sapiens) (UniProt Q06187); assay: BTK Kinase screen; conditions: Compound concentration 1.0 uM
[6] = biological target: Serine/threonine-protein kinase MRCK beta (Homo sapiens) (UniProt Q9Y5S2); assay: CDC42 BPB (MRCKB) Kinase screen; conditions: Compound concentration 1.0 uM
[7] = biological target: T1, Tyrosine-protein kinase ITK/TSK (Homo sapiens) (UniProt Q08881); assay: ITK Kinase screen; conditions: Compound concentration 1.0 uM
T1 sequence (whole entry): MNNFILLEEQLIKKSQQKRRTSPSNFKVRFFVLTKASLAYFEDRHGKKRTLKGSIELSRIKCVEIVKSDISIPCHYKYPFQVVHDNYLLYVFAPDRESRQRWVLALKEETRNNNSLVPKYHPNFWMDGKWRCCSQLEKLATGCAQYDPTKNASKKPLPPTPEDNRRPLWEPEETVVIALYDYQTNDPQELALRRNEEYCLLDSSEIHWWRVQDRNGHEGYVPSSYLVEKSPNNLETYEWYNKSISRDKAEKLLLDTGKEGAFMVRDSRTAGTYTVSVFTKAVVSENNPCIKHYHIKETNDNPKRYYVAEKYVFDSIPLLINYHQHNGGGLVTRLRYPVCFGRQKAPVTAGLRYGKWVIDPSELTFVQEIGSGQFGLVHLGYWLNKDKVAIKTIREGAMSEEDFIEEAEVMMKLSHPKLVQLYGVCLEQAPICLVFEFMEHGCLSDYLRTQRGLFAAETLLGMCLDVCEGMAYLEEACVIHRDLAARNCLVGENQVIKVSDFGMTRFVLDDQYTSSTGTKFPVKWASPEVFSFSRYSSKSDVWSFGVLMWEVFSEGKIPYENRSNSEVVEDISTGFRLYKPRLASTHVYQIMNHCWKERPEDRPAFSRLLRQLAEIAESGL

[8] = biological target: Tyrosine-protein kinase JAK2 (Homo sapiens) (UniProt O60674); assay: JAK2 Kinase screen; conditions: Compound concentration 1.0 uM
[9] = biological target: Serine/threonine-protein kinase MARK1 (Homo sapiens) (UniProt Q9P0L2); assay: MARK1 (MARK) Kinase screen; conditions: Compound concentration 1.0 uM
[10] = biological target: Phosphatidylinositol 4-kinase beta (Homo sapiens) (UniProt Q9UBF8); assay: PI4KB (PI4K beta) Kinase screen; conditions: Compound concentration 1.0 uM
[11] = biological target: Serine/threonine-protein kinase pim-2 (Homo sapiens) (UniProt Q9P1W9); assay: PIM2 Kinase screen; conditions: Compound concentration 1.0 uM
[12] = biological target: Protein kinase C delta type (Homo sapiens) (UniProt Q05655); assay: PRKCD (PKC delta) Kinase screen; conditions: Compound concentration 1.0 uM
[13] = biological target: Proto-oncogene tyrosine-protein kinase ROS (Homo sapiens) (UniProt P08922); assay: ROS1 Kinase screen; conditions: Compound concentration 1.0 uM
[14] = biological target: Serine/threonine-protein kinase 24 (Homo sapiens) (UniProt Q9Y6E0); assay: STK24 (MST3) Kinase screen; conditions: Compound concentration 1.0 uM
[15] = biological target: Serine/threonine-protein kinase 33 (Homo sapiens) (UniProt Q9BYT3); assay: STK33 Kinase screen; conditions: Compound concentration 1.0 uM
[16] = biological target: T2, Serine/threonine-protein kinase TAO3 (Homo sapiens) (UniProt Q9H2K8); assay: TAOK3 (JIK) Kinase screen; conditions: Compound concentration 1.0 uM
T2 sequence (whole entry): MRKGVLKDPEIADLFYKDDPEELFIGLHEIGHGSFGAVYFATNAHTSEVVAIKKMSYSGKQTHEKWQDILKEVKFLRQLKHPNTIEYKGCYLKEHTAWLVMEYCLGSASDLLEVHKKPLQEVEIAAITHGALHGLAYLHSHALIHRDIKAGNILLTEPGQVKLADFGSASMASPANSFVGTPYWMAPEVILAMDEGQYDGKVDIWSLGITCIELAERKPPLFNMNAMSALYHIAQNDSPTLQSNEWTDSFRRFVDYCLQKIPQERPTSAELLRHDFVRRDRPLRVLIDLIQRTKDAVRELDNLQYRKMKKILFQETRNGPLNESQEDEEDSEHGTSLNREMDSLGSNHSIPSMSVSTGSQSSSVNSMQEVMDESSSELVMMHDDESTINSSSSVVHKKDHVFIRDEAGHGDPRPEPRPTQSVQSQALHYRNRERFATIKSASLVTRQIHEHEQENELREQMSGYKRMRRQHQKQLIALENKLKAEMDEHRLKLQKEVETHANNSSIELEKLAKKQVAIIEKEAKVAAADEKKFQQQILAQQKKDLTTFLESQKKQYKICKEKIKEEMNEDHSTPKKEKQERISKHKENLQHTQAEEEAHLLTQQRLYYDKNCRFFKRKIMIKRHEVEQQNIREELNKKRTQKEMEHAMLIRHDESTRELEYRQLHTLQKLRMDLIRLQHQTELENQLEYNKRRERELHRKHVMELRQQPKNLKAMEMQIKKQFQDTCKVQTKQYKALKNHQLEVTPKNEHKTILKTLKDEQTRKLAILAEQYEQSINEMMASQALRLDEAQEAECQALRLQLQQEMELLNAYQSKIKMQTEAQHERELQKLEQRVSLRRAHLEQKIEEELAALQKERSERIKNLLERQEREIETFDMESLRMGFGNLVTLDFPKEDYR

[17] = biological target: Sodium-dependent noradrenaline transporter (Homo sapiens, UniProt P23975)
[18] = biological target: 3-phosphoinositide-dependent protein kinase 1 (PDPK1) (Homo sapiens) (UniProt O15530); assay: PDK1 Direct Kinase screen; conditions: Compound concentration 1.0 uM

Chain of Sodium-dependent noradrenaline transporter (P23975 whole entry): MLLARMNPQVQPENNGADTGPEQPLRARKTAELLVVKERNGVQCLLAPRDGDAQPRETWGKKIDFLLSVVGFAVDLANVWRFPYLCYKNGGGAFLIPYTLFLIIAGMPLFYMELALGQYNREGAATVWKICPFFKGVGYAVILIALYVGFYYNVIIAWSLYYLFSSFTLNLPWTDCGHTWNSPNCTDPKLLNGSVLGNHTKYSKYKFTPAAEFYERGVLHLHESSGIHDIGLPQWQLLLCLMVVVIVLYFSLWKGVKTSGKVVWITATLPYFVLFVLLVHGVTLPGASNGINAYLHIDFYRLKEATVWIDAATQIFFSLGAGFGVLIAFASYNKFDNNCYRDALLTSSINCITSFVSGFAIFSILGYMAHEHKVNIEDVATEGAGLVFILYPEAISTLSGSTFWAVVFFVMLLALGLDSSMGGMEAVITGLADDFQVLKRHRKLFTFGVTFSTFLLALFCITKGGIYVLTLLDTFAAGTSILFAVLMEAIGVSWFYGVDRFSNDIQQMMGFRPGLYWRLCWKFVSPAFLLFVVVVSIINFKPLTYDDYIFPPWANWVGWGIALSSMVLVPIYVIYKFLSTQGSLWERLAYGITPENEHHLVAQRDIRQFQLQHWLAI
Chain of Proto-oncogene tyrosine-protein kinase ROS (Homo sapiens) (P08922 whole entry): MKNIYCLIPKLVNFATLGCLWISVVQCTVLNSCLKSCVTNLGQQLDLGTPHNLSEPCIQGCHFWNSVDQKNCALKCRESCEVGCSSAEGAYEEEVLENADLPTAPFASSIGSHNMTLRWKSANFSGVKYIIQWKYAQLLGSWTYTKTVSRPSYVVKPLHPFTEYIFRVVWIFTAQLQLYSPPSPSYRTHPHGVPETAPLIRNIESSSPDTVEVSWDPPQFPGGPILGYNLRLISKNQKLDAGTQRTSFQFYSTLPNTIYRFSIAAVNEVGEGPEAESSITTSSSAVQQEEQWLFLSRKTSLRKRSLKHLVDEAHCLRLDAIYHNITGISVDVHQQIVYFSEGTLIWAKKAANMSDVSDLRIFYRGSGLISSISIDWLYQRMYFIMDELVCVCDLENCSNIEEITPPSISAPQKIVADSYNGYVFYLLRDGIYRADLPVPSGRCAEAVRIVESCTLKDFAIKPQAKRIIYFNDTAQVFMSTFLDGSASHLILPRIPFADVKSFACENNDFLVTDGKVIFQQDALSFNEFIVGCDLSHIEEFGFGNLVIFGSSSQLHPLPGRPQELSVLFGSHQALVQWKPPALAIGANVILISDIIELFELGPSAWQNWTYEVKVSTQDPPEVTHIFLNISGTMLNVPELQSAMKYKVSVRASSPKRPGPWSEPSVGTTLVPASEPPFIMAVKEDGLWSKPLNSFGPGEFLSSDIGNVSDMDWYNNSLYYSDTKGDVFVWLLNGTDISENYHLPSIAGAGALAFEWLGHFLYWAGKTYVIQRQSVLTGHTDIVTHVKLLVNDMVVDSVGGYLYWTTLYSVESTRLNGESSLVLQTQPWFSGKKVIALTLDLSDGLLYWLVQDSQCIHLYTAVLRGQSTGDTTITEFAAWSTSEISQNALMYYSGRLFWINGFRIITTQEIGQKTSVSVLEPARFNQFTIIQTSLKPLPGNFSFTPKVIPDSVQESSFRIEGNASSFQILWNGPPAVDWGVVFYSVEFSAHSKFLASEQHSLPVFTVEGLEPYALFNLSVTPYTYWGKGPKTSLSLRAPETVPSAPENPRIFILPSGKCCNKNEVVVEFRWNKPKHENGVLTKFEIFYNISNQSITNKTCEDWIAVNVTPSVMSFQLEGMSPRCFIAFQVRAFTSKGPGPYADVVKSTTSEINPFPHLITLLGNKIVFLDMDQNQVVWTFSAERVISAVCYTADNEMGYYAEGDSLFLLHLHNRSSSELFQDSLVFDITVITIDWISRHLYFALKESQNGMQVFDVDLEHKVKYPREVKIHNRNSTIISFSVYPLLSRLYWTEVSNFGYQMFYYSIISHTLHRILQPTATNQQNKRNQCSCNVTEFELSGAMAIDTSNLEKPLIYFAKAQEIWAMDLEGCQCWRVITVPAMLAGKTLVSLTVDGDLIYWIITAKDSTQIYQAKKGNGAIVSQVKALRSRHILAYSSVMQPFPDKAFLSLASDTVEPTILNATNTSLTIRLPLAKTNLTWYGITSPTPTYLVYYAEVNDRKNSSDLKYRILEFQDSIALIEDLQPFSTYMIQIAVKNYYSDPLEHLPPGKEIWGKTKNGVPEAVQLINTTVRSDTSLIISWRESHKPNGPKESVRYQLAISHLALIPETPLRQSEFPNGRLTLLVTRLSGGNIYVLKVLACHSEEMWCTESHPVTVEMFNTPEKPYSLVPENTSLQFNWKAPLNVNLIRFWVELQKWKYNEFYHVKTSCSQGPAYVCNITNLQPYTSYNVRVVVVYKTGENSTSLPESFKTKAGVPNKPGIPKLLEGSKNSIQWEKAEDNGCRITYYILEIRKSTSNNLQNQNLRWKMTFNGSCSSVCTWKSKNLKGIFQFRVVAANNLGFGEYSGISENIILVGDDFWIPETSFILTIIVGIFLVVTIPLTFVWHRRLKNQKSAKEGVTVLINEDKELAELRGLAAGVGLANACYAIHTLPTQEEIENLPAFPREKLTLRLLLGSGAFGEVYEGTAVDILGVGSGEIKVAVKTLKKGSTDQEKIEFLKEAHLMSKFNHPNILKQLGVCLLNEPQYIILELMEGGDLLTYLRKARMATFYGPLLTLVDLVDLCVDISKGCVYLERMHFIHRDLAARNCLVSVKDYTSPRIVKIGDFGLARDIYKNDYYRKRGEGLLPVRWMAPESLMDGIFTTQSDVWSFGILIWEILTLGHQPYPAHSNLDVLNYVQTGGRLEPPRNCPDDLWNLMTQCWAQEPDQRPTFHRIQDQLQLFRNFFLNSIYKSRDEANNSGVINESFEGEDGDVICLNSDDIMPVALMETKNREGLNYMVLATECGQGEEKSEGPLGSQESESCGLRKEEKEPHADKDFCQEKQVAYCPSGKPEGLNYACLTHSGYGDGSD
Chain of Serine/threonine-protein kinase 33 (Homo sapiens) (Q9BYT3 whole entry, looked up): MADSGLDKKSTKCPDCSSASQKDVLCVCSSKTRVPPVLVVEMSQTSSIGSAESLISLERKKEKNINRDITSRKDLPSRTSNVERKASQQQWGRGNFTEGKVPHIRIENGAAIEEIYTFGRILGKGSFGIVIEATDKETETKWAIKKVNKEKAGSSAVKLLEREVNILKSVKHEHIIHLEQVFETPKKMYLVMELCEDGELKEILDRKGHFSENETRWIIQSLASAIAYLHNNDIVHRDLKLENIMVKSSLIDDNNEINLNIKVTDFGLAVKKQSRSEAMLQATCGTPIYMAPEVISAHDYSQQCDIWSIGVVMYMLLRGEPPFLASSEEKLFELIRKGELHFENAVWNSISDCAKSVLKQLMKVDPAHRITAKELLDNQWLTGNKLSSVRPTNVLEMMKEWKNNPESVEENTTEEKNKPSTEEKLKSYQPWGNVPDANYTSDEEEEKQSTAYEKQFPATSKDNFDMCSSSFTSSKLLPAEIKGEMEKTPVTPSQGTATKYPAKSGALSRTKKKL
Chain of Tyrosine-protein kinase JAK2 (Homo sapiens) (O60674 whole entry): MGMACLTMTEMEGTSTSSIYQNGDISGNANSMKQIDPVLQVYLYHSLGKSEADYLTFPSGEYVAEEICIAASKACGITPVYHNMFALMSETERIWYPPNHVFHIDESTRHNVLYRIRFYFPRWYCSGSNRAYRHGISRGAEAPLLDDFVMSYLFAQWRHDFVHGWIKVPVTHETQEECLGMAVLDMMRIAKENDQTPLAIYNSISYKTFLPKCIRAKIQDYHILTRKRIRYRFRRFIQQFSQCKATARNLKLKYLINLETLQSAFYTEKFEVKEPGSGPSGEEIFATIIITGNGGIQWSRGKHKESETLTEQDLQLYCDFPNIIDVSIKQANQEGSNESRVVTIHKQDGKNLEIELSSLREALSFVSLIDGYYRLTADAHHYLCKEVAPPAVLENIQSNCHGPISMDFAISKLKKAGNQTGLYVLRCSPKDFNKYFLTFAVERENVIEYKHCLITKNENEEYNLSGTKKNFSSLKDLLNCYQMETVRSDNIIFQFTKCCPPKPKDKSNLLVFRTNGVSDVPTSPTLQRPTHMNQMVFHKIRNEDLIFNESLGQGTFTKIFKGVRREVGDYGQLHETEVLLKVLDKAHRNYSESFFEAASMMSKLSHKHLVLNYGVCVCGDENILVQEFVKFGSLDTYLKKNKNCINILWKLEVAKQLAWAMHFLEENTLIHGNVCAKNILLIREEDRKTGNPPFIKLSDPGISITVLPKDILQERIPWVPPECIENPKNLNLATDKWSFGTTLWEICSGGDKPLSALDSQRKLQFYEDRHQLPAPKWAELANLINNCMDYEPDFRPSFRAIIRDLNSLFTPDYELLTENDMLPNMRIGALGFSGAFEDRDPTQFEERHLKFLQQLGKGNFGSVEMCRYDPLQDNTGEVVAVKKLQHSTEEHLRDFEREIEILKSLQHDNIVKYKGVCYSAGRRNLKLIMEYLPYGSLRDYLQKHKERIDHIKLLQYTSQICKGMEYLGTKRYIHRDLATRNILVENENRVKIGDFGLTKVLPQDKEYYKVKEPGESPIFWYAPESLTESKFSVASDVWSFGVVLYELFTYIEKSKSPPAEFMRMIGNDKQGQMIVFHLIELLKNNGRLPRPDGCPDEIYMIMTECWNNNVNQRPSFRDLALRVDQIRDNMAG
Chain of Serine/threonine-protein kinase 24 (Homo sapiens) (Q9Y6E0 whole entry, looked up): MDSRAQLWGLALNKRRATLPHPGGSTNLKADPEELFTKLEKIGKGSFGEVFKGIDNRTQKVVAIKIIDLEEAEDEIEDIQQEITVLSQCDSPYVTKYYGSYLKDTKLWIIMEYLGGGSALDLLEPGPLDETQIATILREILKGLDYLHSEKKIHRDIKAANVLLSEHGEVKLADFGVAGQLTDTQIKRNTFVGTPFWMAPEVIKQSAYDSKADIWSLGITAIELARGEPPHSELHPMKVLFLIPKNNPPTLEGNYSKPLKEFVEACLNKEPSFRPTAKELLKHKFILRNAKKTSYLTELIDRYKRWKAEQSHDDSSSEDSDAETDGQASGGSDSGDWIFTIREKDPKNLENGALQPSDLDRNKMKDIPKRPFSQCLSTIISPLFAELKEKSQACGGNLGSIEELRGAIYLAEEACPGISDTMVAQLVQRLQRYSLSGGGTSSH

For `C[C@@H]1CN(c2cc(-c3n[nH]c4ccc(OC5(C)CC5)cc34)ncn2)C[C@H](C)O1` [MLi-2], the inhibition at 10 µM [1] was -2% (not active), the inhibition [2] was 4.43% and the inhibition [3] was 9.34%. For the same compound, the inhibition [4] was 4.79%, the inhibition [5] was 4.5% and the inhibition [6] was 4.34%. The inhibition [7] was 2.04%, the inhibition [8] was 5.78% and the inhibition [9] was 8.35%. The inhibition [10] was 1.46%, the inhibition [11] was -1.94% and the inhibition [12] was 3.65%. For the same compound, the inhibition [13] was 2.52%, the inhibition [14] was 7.34% and the inhibition [15] was 24.3%. For the same compound, the inhibition [16] was 0.385%, the inhibition ([17]; Compound concentration 0.01 uM) was 6% and the inhibition ([17]; Compound concentration 0.1 uM) was 8%. It also gave an inhibition ([17]; Compound concentration 1.0 uM) of 15%, an inhibition ([17]; Compound concentration 10.0 uM) of 77% and an inhibition [18] of -2.36%.
